Legend:
[1] = Compound was evaluated for its anti-HIV activity in vitro in peripheral blood mononuclear (PBM) cells; format: functional; settings: Homo sapiens
[2] = tested on: Vero; experiment: Compound was evaluated for its cytotoxicity against vero cells.; format: functional, cell-based; settings: Chlorocebus sabaeus
[3] = Compound was evaluated for its cytotoxicity against peripheral blood mononuclear (PBM) cells.; format: functional, cell-based; settings: Homo sapiens
[4] = tested on: CCRF-CEM; experiment: Compound was evaluated for its cytotoxicity against CEM cells.; format: functional, cell-based; settings: Homo sapiens
[5] = tested on: CCRF-CEM; experiment: Compound was evaluated for its cytotoxicity expressed as IC50 against CEM cells.; format: functional, cell-based; settings: Homo sapiens

Structure (SMILES) | EC50 [1] | IC50 [2] | IC50 [3] | IC50 [4] | EC90 [1] | IC50 [5]
OCC1C=CC(n2cnc3c(S)ncnc32)C1 (stereo unspecified) | > 100000 nM | > 100 µM | > 100 µM | > 100 µM |  | 
Nc1ncnc2c1ncn2C1C=CC(CO)C1 (stereo unspecified) | 2400 nM | > 100 µM | > 100 µM |  | 11.7 µM | > 100 µM
Cc1cn([C@H]2C[C@H](N=[N+]=[N-])[C@@H](CO)O2)c(=O)[nH]c1=O [ZIDOVUDINE] | 4 nM |  | > 100 µM |  |  | 
